From PMC7265341, “Quantifying CDK inhibitor selectivity in live cells” (Nature Communications, 2020)
Like-named read-outs stand apart in the source and are kept apart here.

Key:
CDK10/Cyclin L2 = CDK10/Cyclin L2 (Homo sapiens, UniProt Q15131); assay: NanoBRET live-cell target engagement, CDK10-NanoLuc/Cyclin L2 in HEK-293; settings: CDK10/L2
CDK8/Cyclin C = CDK8/Cyclin C (Homo sapiens, UniProt P49336); assay: NanoBRET live-cell target engagement, NanoLuc-CDK8/Cyclin C in HEK-293; format: binding; settings: CDK8/C
CDK11A/Cyclin L2 = molecular target: T1, CDK11A/Cyclin L2 (Homo sapiens, UniProt Q9UQ88); assay: NanoBRET live-cell target engagement, CDK11A-NanoLuc/Cyclin L2 in HEK-293; format: binding; settings: CDK11a/L2, 10µM
T1 sequence (Q9UQ88 1-783): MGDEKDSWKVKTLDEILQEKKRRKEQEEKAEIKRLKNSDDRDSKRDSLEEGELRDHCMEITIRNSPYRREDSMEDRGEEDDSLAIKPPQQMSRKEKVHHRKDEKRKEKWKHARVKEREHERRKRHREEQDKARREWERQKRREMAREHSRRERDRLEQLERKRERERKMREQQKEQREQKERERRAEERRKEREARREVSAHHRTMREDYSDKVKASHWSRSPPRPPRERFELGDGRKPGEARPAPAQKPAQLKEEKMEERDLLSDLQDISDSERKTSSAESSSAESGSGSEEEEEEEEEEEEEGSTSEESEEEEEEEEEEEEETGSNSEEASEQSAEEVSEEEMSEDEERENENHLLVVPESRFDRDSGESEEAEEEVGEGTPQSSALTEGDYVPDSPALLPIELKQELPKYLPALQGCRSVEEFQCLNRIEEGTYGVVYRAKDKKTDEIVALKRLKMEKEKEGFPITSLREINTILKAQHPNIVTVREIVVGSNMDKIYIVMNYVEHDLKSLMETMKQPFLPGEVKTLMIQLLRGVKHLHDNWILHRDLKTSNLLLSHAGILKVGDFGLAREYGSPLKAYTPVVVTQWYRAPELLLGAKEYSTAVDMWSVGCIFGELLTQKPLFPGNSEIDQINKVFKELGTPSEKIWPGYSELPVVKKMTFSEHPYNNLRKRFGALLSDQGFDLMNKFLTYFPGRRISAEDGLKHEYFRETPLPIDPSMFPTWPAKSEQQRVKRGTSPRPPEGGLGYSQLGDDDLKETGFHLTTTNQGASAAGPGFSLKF

CDK14/Cyclin Y = CDK14/Cyclin Y (Homo sapiens, UniProt O94921); assay: NanoBRET live-cell target engagement, CDK14-NanoLuc/Cyclin Y in HEK-293; format: binding; settings: CDK14/Y
CDK1/Cyclin E1 = CDK1/Cyclin E1 (Homo sapiens, UniProt P06493); assay: NanoBRET live-cell target engagement, CDK1-NanoLuc/Cyclin E1 in HEK-293; format: binding
CDK12/Cyclin K = CDK12/Cyclin K (Homo sapiens, UniProt Q9NYV4); assay: NanoBRET live-cell target engagement, CDK12-NanoLuc/Cyclin K in HEK-293; format: binding; settings: CDK12/K, 10µM
CDK6/Cyclin D1 = CDK6/Cyclin D1 (Homo sapiens, UniProt Q00534); assay: NanoBRET live-cell target engagement, NanoLuc-CDK6/Cyclin D1 in HEK-293; format: binding; settings: CDK6/D1
CDK5/CDK5R1 = CDK5/CDK5R1 (Homo sapiens, UniProt Q00535); assay: NanoBRET live-cell target engagement, CDK5-NanoLuc/CDK5R1 in HEK-293; format: binding; settings: CDK5/CDK5R1
CDK2/Cyclin E1 = CDK2/Cyclin E1 (Homo sapiens, UniProt P24941); assay: NanoBRET live-cell target engagement, CDK2-NanoLuc/Cyclin E1 in HEK-293; format: binding; settings: CDK2/E1
[1] = read-out: IC50 (nM) Replicate 1
[2] = read-out: IC50 (nM) Replicate 2
[3] = n=3 average ± SEM, n=2 average to 2 significant figures, read-out: IC50 (nM) Average*

Chain of CDK12/Cyclin K (Q9NYV4 1-1481 isoform Q9NYV4-2): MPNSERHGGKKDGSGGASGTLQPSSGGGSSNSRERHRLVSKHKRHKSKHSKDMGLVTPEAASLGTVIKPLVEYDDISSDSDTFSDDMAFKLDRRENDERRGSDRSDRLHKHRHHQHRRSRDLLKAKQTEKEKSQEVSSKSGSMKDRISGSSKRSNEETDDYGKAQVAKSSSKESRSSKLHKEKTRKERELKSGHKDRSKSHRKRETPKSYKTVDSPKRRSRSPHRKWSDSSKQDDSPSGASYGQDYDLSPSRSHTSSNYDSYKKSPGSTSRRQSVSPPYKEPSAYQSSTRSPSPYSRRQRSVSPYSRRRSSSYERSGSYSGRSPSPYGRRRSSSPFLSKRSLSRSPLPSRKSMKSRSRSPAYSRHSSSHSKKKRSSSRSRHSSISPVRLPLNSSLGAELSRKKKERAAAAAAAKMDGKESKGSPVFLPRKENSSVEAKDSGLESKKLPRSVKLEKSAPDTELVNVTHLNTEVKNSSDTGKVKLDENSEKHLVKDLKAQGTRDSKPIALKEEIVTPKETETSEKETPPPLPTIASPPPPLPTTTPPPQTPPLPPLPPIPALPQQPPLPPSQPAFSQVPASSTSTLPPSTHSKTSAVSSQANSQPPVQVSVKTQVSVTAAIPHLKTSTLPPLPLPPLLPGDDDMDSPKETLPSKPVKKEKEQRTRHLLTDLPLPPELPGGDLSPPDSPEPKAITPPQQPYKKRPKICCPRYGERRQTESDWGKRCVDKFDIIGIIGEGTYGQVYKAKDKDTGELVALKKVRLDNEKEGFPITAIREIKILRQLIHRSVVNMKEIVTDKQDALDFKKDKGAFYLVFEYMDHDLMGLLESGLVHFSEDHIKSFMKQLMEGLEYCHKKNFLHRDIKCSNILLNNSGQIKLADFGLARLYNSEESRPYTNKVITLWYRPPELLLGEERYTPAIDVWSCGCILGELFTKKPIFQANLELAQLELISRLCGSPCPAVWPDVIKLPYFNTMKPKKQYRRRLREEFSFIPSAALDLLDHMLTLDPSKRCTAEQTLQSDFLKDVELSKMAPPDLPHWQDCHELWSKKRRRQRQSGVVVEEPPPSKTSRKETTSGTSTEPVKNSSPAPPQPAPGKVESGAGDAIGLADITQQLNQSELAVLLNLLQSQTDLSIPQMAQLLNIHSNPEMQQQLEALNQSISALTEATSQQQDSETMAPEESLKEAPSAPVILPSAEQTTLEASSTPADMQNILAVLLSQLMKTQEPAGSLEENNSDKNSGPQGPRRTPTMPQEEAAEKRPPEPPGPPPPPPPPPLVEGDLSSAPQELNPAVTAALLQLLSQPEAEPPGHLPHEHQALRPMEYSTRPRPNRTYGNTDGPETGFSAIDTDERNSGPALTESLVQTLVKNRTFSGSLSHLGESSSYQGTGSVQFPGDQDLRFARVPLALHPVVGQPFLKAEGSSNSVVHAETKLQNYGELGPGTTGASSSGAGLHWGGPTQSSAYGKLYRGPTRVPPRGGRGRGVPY
Chain of CDK12/Cyclin K (O75909 whole entry partner): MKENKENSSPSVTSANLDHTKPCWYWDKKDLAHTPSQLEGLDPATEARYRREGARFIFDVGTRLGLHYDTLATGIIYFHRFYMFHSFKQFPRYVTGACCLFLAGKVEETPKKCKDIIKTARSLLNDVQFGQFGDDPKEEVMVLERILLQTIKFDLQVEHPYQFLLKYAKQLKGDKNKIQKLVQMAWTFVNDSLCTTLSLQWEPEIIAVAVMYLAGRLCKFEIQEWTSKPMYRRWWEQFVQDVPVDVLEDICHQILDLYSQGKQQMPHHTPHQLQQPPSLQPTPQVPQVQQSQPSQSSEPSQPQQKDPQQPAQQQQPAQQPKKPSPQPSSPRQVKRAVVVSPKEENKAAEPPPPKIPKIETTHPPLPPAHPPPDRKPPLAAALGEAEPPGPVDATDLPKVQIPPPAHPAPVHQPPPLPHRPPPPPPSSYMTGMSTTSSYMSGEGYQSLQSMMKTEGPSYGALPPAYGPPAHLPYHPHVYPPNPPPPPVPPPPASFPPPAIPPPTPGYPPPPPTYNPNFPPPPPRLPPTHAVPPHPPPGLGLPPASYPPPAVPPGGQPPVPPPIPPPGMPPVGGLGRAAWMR
Chain of CDK14/Cyclin Y (O94921 whole entry): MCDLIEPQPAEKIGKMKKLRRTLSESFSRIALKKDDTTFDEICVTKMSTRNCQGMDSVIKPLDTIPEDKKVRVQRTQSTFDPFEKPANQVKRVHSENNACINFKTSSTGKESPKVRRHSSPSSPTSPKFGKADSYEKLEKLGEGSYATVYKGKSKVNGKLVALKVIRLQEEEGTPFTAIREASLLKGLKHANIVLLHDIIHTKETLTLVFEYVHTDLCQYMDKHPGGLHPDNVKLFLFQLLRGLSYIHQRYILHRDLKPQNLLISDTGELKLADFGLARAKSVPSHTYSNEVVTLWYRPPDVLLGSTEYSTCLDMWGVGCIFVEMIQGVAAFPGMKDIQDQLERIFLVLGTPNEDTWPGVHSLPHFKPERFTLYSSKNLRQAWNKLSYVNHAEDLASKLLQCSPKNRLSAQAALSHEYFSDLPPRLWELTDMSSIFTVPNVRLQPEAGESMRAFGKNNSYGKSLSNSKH
Chain of CDK14/Cyclin Y (Q8ND76 whole entry partner): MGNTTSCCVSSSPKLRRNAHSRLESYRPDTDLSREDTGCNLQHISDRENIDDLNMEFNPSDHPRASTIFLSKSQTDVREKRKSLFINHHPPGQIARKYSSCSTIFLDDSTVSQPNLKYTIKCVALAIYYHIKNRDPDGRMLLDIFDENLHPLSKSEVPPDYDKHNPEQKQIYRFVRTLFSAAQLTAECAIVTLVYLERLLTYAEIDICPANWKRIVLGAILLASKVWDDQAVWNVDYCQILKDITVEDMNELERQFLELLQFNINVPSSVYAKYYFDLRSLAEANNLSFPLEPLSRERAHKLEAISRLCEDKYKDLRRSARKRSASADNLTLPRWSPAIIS
Chain of CDK8/Cyclin C (P49336 whole entry): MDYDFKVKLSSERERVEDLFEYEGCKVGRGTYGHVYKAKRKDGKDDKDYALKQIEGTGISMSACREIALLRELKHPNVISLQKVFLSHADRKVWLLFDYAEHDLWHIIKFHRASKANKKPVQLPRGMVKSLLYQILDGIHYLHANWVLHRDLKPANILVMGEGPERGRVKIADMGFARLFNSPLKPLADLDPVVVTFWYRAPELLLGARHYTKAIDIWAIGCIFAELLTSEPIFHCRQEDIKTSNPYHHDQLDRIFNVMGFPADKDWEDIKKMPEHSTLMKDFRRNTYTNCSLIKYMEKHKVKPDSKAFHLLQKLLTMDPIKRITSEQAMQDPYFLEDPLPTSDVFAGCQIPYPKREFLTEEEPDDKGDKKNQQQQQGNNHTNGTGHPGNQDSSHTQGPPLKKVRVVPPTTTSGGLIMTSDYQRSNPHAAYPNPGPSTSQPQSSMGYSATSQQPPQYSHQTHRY
Chain of CDK8/Cyclin C (P24863 whole entry partner): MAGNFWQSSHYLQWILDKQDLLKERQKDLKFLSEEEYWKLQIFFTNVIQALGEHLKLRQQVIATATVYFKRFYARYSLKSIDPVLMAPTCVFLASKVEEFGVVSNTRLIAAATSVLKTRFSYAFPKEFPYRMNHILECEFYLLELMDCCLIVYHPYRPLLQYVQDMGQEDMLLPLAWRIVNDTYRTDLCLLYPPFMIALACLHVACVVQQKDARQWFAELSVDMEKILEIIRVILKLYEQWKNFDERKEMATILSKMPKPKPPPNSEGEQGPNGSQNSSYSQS
Chain of CDK10/Cyclin L2 (Q15131 whole entry): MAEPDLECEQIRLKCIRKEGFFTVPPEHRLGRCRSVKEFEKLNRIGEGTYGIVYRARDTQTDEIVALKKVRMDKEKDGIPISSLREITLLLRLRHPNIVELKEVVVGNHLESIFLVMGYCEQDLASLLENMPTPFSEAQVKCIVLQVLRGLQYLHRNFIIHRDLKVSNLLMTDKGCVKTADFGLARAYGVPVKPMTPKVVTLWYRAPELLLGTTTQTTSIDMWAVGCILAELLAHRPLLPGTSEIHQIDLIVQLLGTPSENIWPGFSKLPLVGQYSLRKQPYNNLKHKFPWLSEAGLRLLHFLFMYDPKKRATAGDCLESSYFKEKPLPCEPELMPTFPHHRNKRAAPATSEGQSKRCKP
Chain of CDK5/CDK5R1 (Q00535 whole entry): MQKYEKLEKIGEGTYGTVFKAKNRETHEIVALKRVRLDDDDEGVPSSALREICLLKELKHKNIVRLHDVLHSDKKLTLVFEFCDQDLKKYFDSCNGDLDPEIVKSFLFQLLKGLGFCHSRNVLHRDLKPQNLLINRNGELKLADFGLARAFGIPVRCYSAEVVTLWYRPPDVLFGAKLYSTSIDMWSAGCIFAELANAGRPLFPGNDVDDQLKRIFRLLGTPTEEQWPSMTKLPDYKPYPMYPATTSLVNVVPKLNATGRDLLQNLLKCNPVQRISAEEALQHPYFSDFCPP
Chain of CDK5/CDK5R1 (Q15078 whole entry partner): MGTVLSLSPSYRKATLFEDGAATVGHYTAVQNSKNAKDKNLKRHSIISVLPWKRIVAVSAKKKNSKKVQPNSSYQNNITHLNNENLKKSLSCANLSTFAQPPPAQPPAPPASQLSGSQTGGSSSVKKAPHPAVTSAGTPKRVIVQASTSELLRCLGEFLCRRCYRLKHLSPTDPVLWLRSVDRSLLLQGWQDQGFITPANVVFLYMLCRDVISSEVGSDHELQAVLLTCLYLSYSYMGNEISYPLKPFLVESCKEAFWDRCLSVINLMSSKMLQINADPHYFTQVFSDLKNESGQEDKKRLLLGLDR

SMILES: CNC1CCN(C(=O)c2ccc(Nc3ncc(F)c(-c4cnc(C)n4C(C)C)n3)cc2)C1 (stereo not drawn) [AZD5597]
- Inhibition at 10µM (%) Replicate 2 (CDK10/Cyclin L2; 10µM): 87.4%
- Inhibition at 10µM (%) Average (CDK10/Cyclin L2; 10µM, average of replicates): 86.5%
- IC50 (CDK10/Cyclin L2; read-out: IC50 (nM) Average*, n=3 average ± SEM, n=2 average to 2 significant figures): 520 nM
- IC50 (CDK10/Cyclin L2; [1]): 450 nM
- IC50 (CDK10/Cyclin L2; [2]): 580 nM
- Inhibition at 10µM (%) Replicate 1 (CDK8/Cyclin C; 10µM): 91.3%
- Inhibition at 10µM (%) Replicate 2 (CDK8/Cyclin C; 10µM): 98.8%
- Inhibition at 10µM (%) Average (CDK8/Cyclin C; 10µM, average of replicates): 95.1%
- IC50 (CDK8/Cyclin C; [3]): 370 nM
- IC50 (CDK8/Cyclin C; [1]): 434 nM
- IC50 (CDK8/Cyclin C; [2]): 297 nM
- Inhibition at 10µM (%) Replicate 1 (CDK11A/Cyclin L2): 89.7%
- Inhibition at 10µM (%) Replicate 2 (CDK11A/Cyclin L2): 90.1%
- Inhibition at 10µM (%) Average (CDK11A/Cyclin L2; average of replicates): 89.9%
- Inhibition at 10µM (%) Replicate 1 (CDK14/Cyclin Y; 10µM): 93.6%
- Inhibition at 10µM (%) Replicate 2 (CDK14/Cyclin Y; 10µM): 93.4%
- Inhibition at 10µM (%) Average (CDK14/Cyclin Y; 10µM, average of replicates): 93.5%
- IC50 (CDK14/Cyclin Y; [3]): 250 nM
- IC50 (CDK14/Cyclin Y; [1]): 151 nM
- IC50 (CDK14/Cyclin Y; [2]): 350 nM
- Inhibition at 10µM (%) Replicate 1 (CDK1/Cyclin E1; CDK1/E1, 10µM): 93.8%
- Inhibition at 10µM (%) Replicate 2 (CDK1/Cyclin E1; CDK1/E1, 10µM): 95.4%
- Inhibition at 10µM (%) Average (CDK1/Cyclin E1; CDK1/E1, 10µM, average of replicates): 94.6%
- IC50 (CDK1/Cyclin E1; CDK1/E1, n=3 average ± SEM, n=2 average to 2 significant figures, read-out: IC50 (nM) Average*): 9 nM
- IC50 (CDK1/Cyclin E1; CDK1/E1, read-out: IC50 (nM) Replicate 1): 9 nM
- IC50 (CDK1/Cyclin E1; CDK1/E1, read-out: IC50 (nM) Replicate 2): 9 nM
- IC50 (CDK1/Cyclin E1; live HEK-293, 2 h, mean ± S.E.M. (n=3) or mean (n=2), read-out: IC50 for CDK/cyclin complexes, CDK1/E1): 9 nM
- Inhibition at 10µM (%) Replicate 1 (CDK12/Cyclin K): 44.4%
- Inhibition at 10µM (%) Replicate 2 (CDK12/Cyclin K): 42.5%
- Inhibition at 10µM (%) Average (CDK12/Cyclin K; average of replicates): 43.5%
- Inhibition at 10µM (%) Replicate 1 (CDK6/Cyclin D1; 10µM): 99.7%
- Inhibition at 10µM (%) Replicate 2 (CDK6/Cyclin D1; 10µM): 100.6%
- Inhibition at 10µM (%) Average (CDK6/Cyclin D1; 10µM, average of replicates): 100.1%
- IC50 (CDK6/Cyclin D1; [3]): 8.3 nM
- IC50 (CDK6/Cyclin D1; [1]): 10 nM
- IC50 (CDK6/Cyclin D1; [2]): 6.5 nM
- Inhibition at 10µM (%) Replicate 1 (CDK5/CDK5R1; 10µM): 90.7%
- Inhibition at 10µM (%) Replicate 2 (CDK5/CDK5R1; 10µM): 97.1%
- Inhibition at 10µM (%) Average (CDK5/CDK5R1; 10µM, average of replicates): 93.9%
- IC50 (CDK5/CDK5R1; [3]): 10 nM
- IC50 (CDK5/CDK5R1; [1]): 8.2 nM
- IC50 (CDK5/CDK5R1; [2]): 12 nM
- Inhibition at 10µM (%) Replicate 1 (CDK2/Cyclin E1; 10µM): 99.9%
- Inhibition at 10µM (%) Replicate 2 (CDK2/Cyclin E1; 10µM): 99.7%
- Inhibition at 10µM (%) Average (CDK2/Cyclin E1; 10µM, average of replicates): 99.8%
- IC50 (CDK2/Cyclin E1; [3]): 6.6 nM
- IC50 (CDK2/Cyclin E1; [1]): 6.7 nM
- IC50 (CDK2/Cyclin E1; [2]): 6.4 nM
